Test results from the supplement of paper PMC11061612.

How the values were obtained:
[1] = system: LNZTA3WT4 (Low Grade Glioma); experiment: combination Emax (second highest fraction inhibited in the dose matrix, 72 h); higher = more inhibition; extreme values may be limits of the assay
Method in brief: (§1)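 Cell lines grown in DMEM/F12 or RPMI with 10% FBS were plated in 1536-well plates and held 24 hours at 37°C, 5% CO2 before 72 hours of exposure to two-drug dose matrices, with DMSO typically at 0.2%. CellTiter-Glo 2.0 luminescence gave viability, which was converted to inhibition. Vehicle wells were set to 0 and blank wells to 1. Combination Emax is the second-highest inhibition in the matrix, and Bliss excess is the observed combination effect minus the expected EA + EB − EA·EB, where EA and EB are the single-agent effects.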

[2] = system: LS-123 (Colorectal Carcinoma); experiment: as above
Method in brief: as §1

LOXIMVI (Melanoma) [3] = experiment: as above
Method in brief: as §1

[4] = system: KYAE-1 (Esophageal Adenocarcinoma); experiment: as above
Method in brief: as §1

A673 (Ewing's Sarcoma) [5] = experiment: as above
Method in brief: as §1

KS-1 (Glioblastoma) [6] = experiment: as above
Method in brief: as §1

[7] = system: HH (T-Cell Non-Hodgkin's Lymphoma); experiment: as above
Method in brief: as §1

[8] = system: SW1710 (Bladder Carcinoma); experiment: as above
Method in brief: as §1

[9] = system: YAPC (Pancreatic Carcinoma); experiment: as above
Method in brief: as §1

[10] = system: SAS (Oral Cavity Carcinoma); experiment: as above
Method in brief: as §1

[11] = system: TGBC1TKB (Biliary Tract Carcinoma); experiment: as above
Method in brief: as §1

EW-11 (Ewing's Sarcoma) [12] = experiment: as above
Method in brief: as §1

[13] = system: WSU-NHL (B-Cell Non-Hodgkin's Lymphoma); experiment: as above
Method in brief: as §1

[14] = system: SNU-449 (Hepatocellular Carcinoma); experiment: as above
Method in brief: as §1

CAL-72 (Osteosarcoma) [15] = experiment: as above
Method in brief: as §1

[16] = system: OVCAR-5 (Ovarian Carcinoma); experiment: as above
Method in brief: as §1

[17] = system: ESS-1 (Other Solid Carcinomas); experiment: as above
Method in brief: as §1

GAMG (Glioblastoma) [18] = experiment: as above
Method in brief: as §1

[19] = system: NCI-H524 (Small Cell Lung Carcinoma); experiment: as above
Method in brief: as §1

[20] = system: BE-13 (T-Lymphoblastic Leukemia); experiment: as above
Method in brief: as §1

[21] = system: SNU-16 (Gastric Carcinoma); experiment: as above
Method in brief: as §1

MPP-89 (Mesothelioma) [22] = experiment: as above
Method in brief: as §1

[23] = system: HuCCT1 (Biliary Tract Carcinoma); experiment: as above
Method in brief: as §1

[24] = system: LNZTA3WT4 (Low Grade Glioma); experiment: Bliss excess, mean over the matrix (fraction); higher = more synergy
Method in brief: as §1

[25] = system: LS-123 (Colorectal Carcinoma); experiment: as above
Method in brief: as §1

LOXIMVI (Melanoma) [26] = experiment: as above
Method in brief: as §1

[27] = system: KYAE-1 (Esophageal Adenocarcinoma); experiment: as above
Method in brief: as §1

A673 (Ewing's Sarcoma) [28] = experiment: as above
Method in brief: as §1

KS-1 (Glioblastoma) [29] = experiment: as above
Method in brief: as §1

[30] = system: HH (T-Cell Non-Hodgkin's Lymphoma); experiment: as above
Method in brief: as §1

[31] = system: SW1710 (Bladder Carcinoma); experiment: as above
Method in brief: as §1

[32] = system: YAPC (Pancreatic Carcinoma); experiment: as above
Method in brief: as §1

[33] = system: SAS (Oral Cavity Carcinoma); experiment: as above
Method in brief: as §1

[34] = system: TGBC1TKB (Biliary Tract Carcinoma); experiment: as above
Method in brief: as §1

EW-11 (Ewing's Sarcoma) [35] = experiment: as above
Method in brief: as §1

[36] = system: WSU-NHL (B-Cell Non-Hodgkin's Lymphoma); experiment: as above
Method in brief: as §1

[37] = system: SNU-449 (Hepatocellular Carcinoma); experiment: as above
Method in brief: as §1

CAL-72 (Osteosarcoma) [38] = experiment: as above
Method in brief: as §1

[39] = system: OVCAR-5 (Ovarian Carcinoma); experiment: as above
Method in brief: as §1

[40] = system: ESS-1 (Other Solid Carcinomas); experiment: as above
Method in brief: as §1

GAMG (Glioblastoma) [41] = experiment: as above
Method in brief: as §1

[42] = system: NCI-H524 (Small Cell Lung Carcinoma); experiment: as above
Method in brief: as §1

[43] = system: BE-13 (T-Lymphoblastic Leukemia); experiment: as above
Method in brief: as §1

[44] = system: SNU-16 (Gastric Carcinoma); experiment: as above
Method in brief: as §1

MPP-89 (Mesothelioma) [45] = experiment: as above
Method in brief: as §1

[46] = system: HuCCT1 (Biliary Tract Carcinoma); experiment: as above
Method in brief: as §1
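Wherever Bliss excess, mean over the matrix is given: after 72 h of two-drug dosing.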

SMILES: N#Cc1cnc(Nc2cc(NC[C@H]3CNCCO3)c(C(F)(F)F)cn2)cn1 [SRA737] + O=c1[nH]cc(F)c(=O)[nH]1 [5-Fluorouracil] (first compound max 10 µM, 7x7, partner max 20 µM)
- combination Emax [1]: 0.815
- combination Emax [2]: 0.414
- combination Emax (LOXIMVI (Melanoma) [3]): 0.41
- combination Emax [4]: 0.23
- combination Emax (A673 (Ewing's Sarcoma) [5]): 0.402
- combination Emax (KS-1 (Glioblastoma) [6]): 0.281
- combination Emax [7]: 0.188
- combination Emax [8]: 0.217
- combination Emax [9]: 0.406
- combination Emax [10]: 0.456
- combination Emax [11]: 0.0891
- combination Emax (EW-11 (Ewing's Sarcoma) [12]): 0.5
- combination Emax [13]: 0.965
- combination Emax [14]: 0.293
- combination Emax (CAL-72 (Osteosarcoma) [15]): 0.51
- combination Emax [16]: 0.538
- combination Emax [17]: 0.927
- combination Emax (GAMG (Glioblastoma) [18]): 0.315
- combination Emax [19]: 0.935
- combination Emax [20]: 0.863
- combination Emax [21]: 0.961
- combination Emax (MPP-89 (Mesothelioma) [22]): 0.424
- combination Emax [23]: 0.839
- Bliss excess [24]: -0.0325
- Bliss excess [25]: -0.0135
- Bliss excess (LOXIMVI (Melanoma) [26]): -0.0241
- Bliss excess [27]: 0.0202
- Bliss excess (A673 (Ewing's Sarcoma) [28]): 0.0354
- Bliss excess (KS-1 (Glioblastoma) [29]): -0.0464
- Bliss excess [30]: 0.0123
- Bliss excess [31]: -0.0212
- Bliss excess [32]: 0.0062
- Bliss excess [33]: -0.0104
- Bliss excess [34]: -0.0482
- Bliss excess (EW-11 (Ewing's Sarcoma) [35]): -0.0246
- Bliss excess [36]: 0.0005
- Bliss excess [37]: -0.0175
- Bliss excess (CAL-72 (Osteosarcoma) [38]): 0.0294
- Bliss excess [39]: -0.0535
- Bliss excess [40]: -0.0297
- Bliss excess (GAMG (Glioblastoma) [41]): -0.0226
- Bliss excess [42]: 0.0593
- Bliss excess [43]: -0.0334
- Bliss excess [44]: 0.0632
- Bliss excess (MPP-89 (Mesothelioma) [45]): 0.0355
- Bliss excess [46]: 0.102

SMILES: Cc1c2c(nn1C)CSCc1cc(n(C)n1)CSc1cc(c3ccccc3c1)OCCCc1c(C(=O)O)n(C)c3c-2c(Cl)ccc13 [AZD5991] + CS(=O)(=O)CCNCc1ccc(-c2ccc3ncnc(Nc4ccc(OCc5cccc(F)c5)c(Cl)c4)c3c2)o1 [Lapatinib] (first compound max 1 µM, 7x7, partner max 10 µM)
- combination Emax [1]: 0.447
- combination Emax [2]: 0.394
- combination Emax (LOXIMVI (Melanoma) [3]): 0.535
- combination Emax [4]: 0.84
- combination Emax (A673 (Ewing's Sarcoma) [5]): 0.388
- combination Emax (KS-1 (Glioblastoma) [6]): 0.147
- combination Emax [7]: 0.868
- combination Emax [8]: 0.185
- combination Emax [9]: 0.186
- combination Emax [10]: 0.485
- combination Emax (EW-11 (Ewing's Sarcoma) [12]): 0.572
- combination Emax [13]: 0.909
- combination Emax [14]: 0.547
- combination Emax (CAL-72 (Osteosarcoma) [15]): 0.83
- combination Emax [16]: 0.334
- combination Emax [17]: 0.702
- combination Emax (GAMG (Glioblastoma) [18]): 0.507
- combination Emax [19]: 0.502
- combination Emax [20]: 0.936
- combination Emax [21]: 0.998
- combination Emax (MPP-89 (Mesothelioma) [22]): 0.312
- combination Emax [23]: 0.482
- Bliss excess [24]: 0.0355
- Bliss excess [25]: -0.0106
- Bliss excess (LOXIMVI (Melanoma) [26]): 0.017
- Bliss excess [27]: 0.0569
- Bliss excess (A673 (Ewing's Sarcoma) [28]): 0.0006
- Bliss excess (KS-1 (Glioblastoma) [29]): -0.0277
- Bliss excess [30]: -0.0635
- Bliss excess [31]: -0.0639
- Bliss excess [32]: -0.0084
- Bliss excess [33]: -0.0208
- Bliss excess [34]: -0.0463
- Bliss excess (EW-11 (Ewing's Sarcoma) [35]): -0.0014
- Bliss excess [36]: -0.0347
- Bliss excess [37]: 0.0212
- Bliss excess (CAL-72 (Osteosarcoma) [38]): 0.0088
- Bliss excess [39]: -0.0071
- Bliss excess [40]: 0.0292
- Bliss excess (GAMG (Glioblastoma) [41]): 0.0088
- Bliss excess [42]: -0.0908
- Bliss excess [43]: 0.0363
- Bliss excess [44]: -0.0003
- Bliss excess (MPP-89 (Mesothelioma) [45]): -0.0088
- Bliss excess [46]: 0.0065
